In one data set the test system is Nucleic Acid. Kind of data set: Binding affinity to HIV TAR RNA by electrophoretic mobility shift assay in presence of Escherichia coli tRNA. Format: nucleic-acid assay, Human immunodeficiency virus. Background: In EMSA bound probe runs differently from free probe, usually more slowly.
The next data set deals with Jurkat. As to the kind of experiment: Cytotoxicity against human Jurkat cells assessed as cell viability at 120 uM after 4 hrs by WST-1 assay. The class given is cell-based.

Molecules are shown by their SMILES.

As a reminder, the Kd is the equilibrium constant for the complex coming apart. In the case of `CC(=O)N[C@@H](Cc1ccc(O)cc1)C(=O)NCC(=O)N[C@@H](CCCNC(=N)N)C(=O)N[C@@H](CCCCN)C(=O)N[C@@H](CCCCN)C(=O)N[C@@H](CCCNC(=N)N)C(=O)N[C@@H](CCCNC(=N)N(C)C)C(=O)N[C@@H](CCC(N)=O)C(=O)N[C@@H](CCCNC(=N)N)C(=O)N[C@@H](CCCNC(=N)N)C(=O)N[C@@H](CCCNC(=N)N)C(N)=O`, the Kd with Nucleic Acid was 881 nM. Besides, the Activity entry in the data set with Jurkat was “Non-toxic”.

For `CC(=O)N[C@@H](Cc1ccc(O)cc1)C(=O)NCC(=O)N[C@@H](CCCNC(=N)N)C(=O)N[C@@H](CCCCN)C(=O)N[C@@H](CCCCN)C(=O)N[C@@H](CCCNC(=N)N)C(=O)N[C@@H](CCCNC(=N)N)C(=O)N[C@@H](CCC(N)=O)C(=O)N[C@@H](CCCNC(=N)N)C(=O)N[C@@H](CCCNC(=N)N)C(=O)N[C@@H](CCCNC(=N)N)C(N)=O`, the dissociation constant (Kd) with Nucleic Acid was found to be 260 nM. Also, in the data set with Jurkat, the Activity entry is recorded as “Non-toxic”.

As for `CC(=O)N[C@@H](Cc1ccc(O)cc1)C(=O)NCC(=O)N[C@@H](CCCNC(=N)N)C(=O)N[C@@H](CCCCN)C(=O)N[C@@H](CCCCN)C(=O)N[C@@H](CCCNC(=N)N)C(=O)N[C@@H](CCCNC(=N)N)C(=O)N[C@@H](CCC(N)=O)C(=O)N[C@@H](CCCNC(=N)N)C(=O)N[C@@H](CCCNC(=N)N)C(=O)N[C@@H](CCCNC(=N)N(C)C)C(N)=O`, the Kd in the data set with Nucleic Acid stood at 277 nM. Besides, the Activity result in the data set with Jurkat is on record as “Non-toxic”.

Consider `C/N=C(\NC)NCCC[C@H](NC(=O)[C@H](CCCNC(=N)N)NC(=O)[C@H](CCCNC(=N)N)NC(=O)[C@H](CCC(N)=O)NC(=O)[C@H](CCCNC(=N)N)NC(=O)[C@H](CCCNC(=N)N)NC(=O)[C@H](CCCCN)NC(=O)[C@H](CCCCN)NC(=O)[C@H](CCCNC(=N)N)NC(=O)CNC(=O)[C@H](Cc1ccc(O)cc1)NC(C)=O)C(N)=O`, for which the Kd in the data set on Nucleic Acid was 262 nM. In addition, the Activity entry with Jurkat was “Non-toxic”.

`CNC(=N)NCCC[C@H](NC(=O)[C@H](CCC(N)=O)NC(=O)[C@H](CCCNC(=N)N)NC(=O)[C@H](CCCNC(=N)N)NC(=O)[C@H](CCCCN)NC(=O)[C@H](CCCCN)NC(=O)[C@H](CCCNC(=N)N)NC(=O)CNC(=O)[C@H](Cc1ccc(O)cc1)NC(C)=O)C(=O)N[C@@H](CCCNC(=N)N)C(=O)N[C@@H](CCCNC(=N)N)C(N)=O`: the Kd with Nucleic Acid is 380 nM. In addition, the Activity result with Jurkat is reported as “Non-toxic”.

`C/N=C(\NC)NCCC[C@H](NC(=O)CNC(=O)[C@H](Cc1ccc(O)cc1)NC(C)=O)C(=O)N[C@@H](CCCCN)C(=O)N[C@@H](CCCCN)C(=O)N[C@@H](CCCNC(=N)N)C(=O)N[C@@H](CCCNC(=N)N)C(=O)N[C@@H](CCC(N)=O)C(=O)N[C@@H](CCCNC(=N)N)C(=O)N[C@@H](CCCNC(=N)N)C(=O)N[C@@H](CCCNC(=N)N)C(N)=O`: the Kd in the data set on Nucleic Acid was 219 nM. Also, the Activity entry in the data set on Jurkat was “Non-toxic”.

With `CNC(=N)NCCC[C@H](NC(=O)[C@H](CCCCN)NC(=O)[C@H](CCCCN)NC(=O)[C@H](CCCNC(=N)N)NC(=O)CNC(=O)[C@H](Cc1ccc(O)cc1)NC(C)=O)C(=O)N[C@@H](CCCNC(=N)N)C(=O)N[C@@H](CCC(N)=O)C(=O)N[C@@H](CCCNC(=N)N)C(=O)N[C@@H](CCCNC(=N)N)C(=O)N[C@@H](CCCNC(=N)N)C(N)=O`, in the data set on Nucleic Acid, the Kd came out at 310 nM. For the same compound, the Activity result with Jurkat was “Non-toxic”.

As to `CC(=O)N[C@@H](Cc1ccc(O)cc1)C(=O)NCC(=O)N[C@@H](CCCNC(=N)N)C(=O)N[C@@H](CCCCN)C(=O)N[C@@H](CCCCN)C(=O)N[C@@H](CCCNC(=N)N(C)C)C(=O)N[C@@H](CCCNC(=N)N)C(=O)N[C@@H](CCC(N)=O)C(=O)N[C@@H](CCCNC(=N)N)C(=O)N[C@@H](CCCNC(=N)N)C(=O)N[C@@H](CCCNC(=N)N)C(N)=O`, the Kd in the data set with Nucleic Acid is 385 nM. For the same compound, the Activity result in the data set on Jurkat is on record as “Non-toxic”.

On to `C/N=C(\NC)NCCC[C@H](NC(=O)[C@H](CCCNC(=N)N)NC(=O)[C@H](CCCCN)NC(=O)[C@H](CCCCN)NC(=O)[C@H](CCCNC(=N)N)NC(=O)CNC(=O)[C@H](Cc1ccc(O)cc1)NC(C)=O)C(=O)N[C@@H](CCC(N)=O)C(=O)N[C@@H](CCCNC(=N)N)C(=O)N[C@@H](CCCNC(=N)N)C(=O)N[C@@H](CCCNC(=N)N)C(N)=O`, for which, in the data set on Nucleic Acid, the Kd came out at 576 nM. In addition, in the data set with Jurkat, the Activity entry is on record as “Non-toxic”.

In the case of `C/N=C(\NC)NCCC[C@H](NC(=O)[C@H](CCC(N)=O)NC(=O)[C@H](CCCNC(=N)N)NC(=O)[C@H](CCCNC(=N)N)NC(=O)[C@H](CCCCN)NC(=O)[C@H](CCCCN)NC(=O)[C@H](CCCNC(=N)N)NC(=O)CNC(=O)[C@H](Cc1ccc(O)cc1)NC(C)=O)C(=O)N[C@@H](CCCNC(=N)N)C(=O)N[C@@H](CCCNC(=N)N)C(N)=O`, the dissociation constant Kd in the data set with Nucleic Acid stood at 527 nM. Also, the Activity result with Jurkat is listed as “Non-toxic”.

As to `CC(=O)N[C@@H](Cc1ccc(O)cc1)C(=O)NCC(=O)N[C@@H](CCCNC(=N)N)C(=O)N[C@@H](CCCCN)C(=O)N[C@@H](CCCCN)C(=O)N[C@@H](CCCNC(=N)N)C(=O)N[C@@H](CCCNC(=N)N)C(=O)N[C@@H](CCC(N)=O)C(=O)N[C@@H](CCCNC(=N)N)C(=O)N[C@@H](CCCNC(=N)N(C)C)C(=O)N[C@@H](CCCNC(=N)N)C(N)=O`, the Kd in the data set on Nucleic Acid was 404 nM. For the same compound, the Activity result with Jurkat is “Non-toxic”.

As for `CC(=O)N[C@@H](Cc1ccc(O)cc1)C(=O)NCC(=O)N[C@@H](CCCNC(=N)N)C(=O)N[C@@H](CCCCN)C(=O)N[C@@H](CCCCN)C(=O)N[C@@H](CCCNC(=N)N)C(=O)N[C@@H](CCCNC(=N)N)C(=O)N[C@@H](CCC(N)=O)C(=O)N[C@@H](CCCNC(=N)N(C)C)C(=O)N[C@@H](CCCNC(=N)N)C(=O)N[C@@H](CCCNC(=N)N)C(N)=O`, the Kd with Nucleic Acid worked out at 398 nM. The Activity entry in the data set with Jurkat was “Non-toxic”.

Consider `C/N=C(\NC)NCCC[C@H](NC(=O)[C@H](CCCCN)NC(=O)[C@H](CCCCN)NC(=O)[C@H](CCCNC(=N)N)NC(=O)CNC(=O)[C@H](Cc1ccc(O)cc1)NC(C)=O)C(=O)N[C@@H](CCCNC(=N)N)C(=O)N[C@@H](CCC(N)=O)C(=O)N[C@@H](CCCNC(=N)N)C(=O)N[C@@H](CCCNC(=N)N)C(=O)N[C@@H](CCCNC(=N)N)C(N)=O`, for which the Kd in the data set on Nucleic Acid turned out to be 328 nM. For the same compound, the Activity result in the data set on Jurkat was “Non-toxic”.

On to `CNC(=N)NCCC[C@H](NC(=O)[C@H](CCCNC(=N)N)NC(=O)[C@H](CCCCN)NC(=O)[C@H](CCCCN)NC(=O)[C@H](CCCNC(=N)N)NC(=O)CNC(=O)[C@H](Cc1ccc(O)cc1)NC(C)=O)C(=O)N[C@@H](CCC(N)=O)C(=O)N[C@@H](CCCNC(=N)N)C(=O)N[C@@H](CCCNC(=N)N)C(=O)N[C@@H](CCCNC(=N)N)C(N)=O`, for which the Kd in the data set with Nucleic Acid is 383 nM. Besides, the Activity result in the data set with Jurkat is recorded as “Non-toxic”.

Consider `CNC(=N)NCCC[C@H](NC(=O)[C@H](CCCNC(=N)N)NC(=O)[C@H](CCC(N)=O)NC(=O)[C@H](CCCNC(=N)N)NC(=O)[C@H](CCCNC(=N)N)NC(=O)[C@H](CCCCN)NC(=O)[C@H](CCCCN)NC(=O)[C@H](CCCNC(=N)N)NC(=O)CNC(=O)[C@H](Cc1ccc(O)cc1)NC(C)=O)C(=O)N[C@@H](CCCNC(=N)N)C(N)=O`, for which, in the data set on Nucleic Acid, the Kd was 219 nM. In addition, the Activity entry in the data set with Jurkat is on record as “Non-toxic”.

On to `CNC(=N)NCCC[C@H](NC(=O)[C@H](CCCNC(=N)N)NC(=O)[C@H](CCCNC(=N)N)NC(=O)[C@H](CCC(N)=O)NC(=O)[C@H](CCCNC(=N)N)NC(=O)[C@H](CCCNC(=N)N)NC(=O)[C@H](CCCCN)NC(=O)[C@H](CCCCN)NC(=O)[C@H](CCCNC(=N)N)NC(=O)CNC(=O)[C@H](Cc1ccc(O)cc1)NC(C)=O)C(N)=O`, for which, in the data set with Nucleic Acid, the Kd worked out at 197 nM. Besides, the Activity result with Jurkat is “Non-toxic”.

In the case of `CC(=O)N[C@@H](Cc1ccc(O)cc1)C(=O)NCC(=O)N[C@@H](CCCNC(=N)N(C)C)C(=O)N[C@@H](CCCCN)C(=O)N[C@@H](CCCCN)C(=O)N[C@@H](CCCNC(=N)N)C(=O)N[C@@H](CCCNC(=N)N)C(=O)N[C@@H](CCC(N)=O)C(=O)N[C@@H](CCCNC(=N)N)C(=O)N[C@@H](CCCNC(=N)N)C(=O)N[C@@H](CCCNC(=N)N)C(N)=O`, the Kd with Nucleic Acid came to 279 nM. Besides, the Activity entry with Jurkat is given as “Non-toxic”.

For the origin of these results see ChEMBL document CHEMBL3400097, “Effect of arginine methylation on the RNA recognition and cellular uptake of Tat-derived peptides” (Bioorg Med Chem, 2015).
